Laboratory results taken from patent US7183099B2, “Inhibitors of autoinducer transporters” (Princeton University, priority 2001, dated 2007).

Assays:
[1] = system: V. harveyi reporter strain BB170 (Sensor 1−, Sensor 2+); assay type: cell-based, Vibrio harveyi; details: candidates for the signal tested
Description: Cell-free culture fluids from E. coli, S. typhimurium and V. harveyi strains were tested for the presence of signaling substances that could induce luminescence in the V. harveyi reporter strain BB170 or BB886. […] Positive control wells contained 10 μl of cell-free culture fluid from strain V. harveyi BB152 (Autoinducer-1^−, Autoinducer-2^+) or V. harveyi BB120 (Autoinducer-1^+, Autoinducer-2^+). Negative control wells contained 10 μl of sterile growth medium. The microtiter dishes were shaken in a rotary shaker at 175 rpm at 30° C.
The cell density was measured by diluting the same aliquots of cells used for measuring luminescence, spreading the dilutions onto solid LM medium, incubating the plates overnight at 30° C., and counting the resulting colonies the following day. […] Cell-free culture supernatants from V. harveyi or S. typhimurium strains were added to a final concentration of 10% (v/v) at the time of the first measurement. In control experiments, 10% (v/v) of AB medium, LB medium or LB medium containing 0.5% glucose was added instead of cell-free culture fluids.

[2] = system: V. harveyi reporter strain BB886 (Sensor 1+, Sensor 2−); assay: V. harveyi BB886 luminescence stimulation bioassay; assay type: cell-based, Vibrio harveyi; details: non self-stimulating sensor-1+, sensor-2− mutant (BB886)
Description: Assay for production of signaling compounds. Cell-free culture fluids from E. coli, S. typhimurium and V. harveyi strains were tested for the presence of signaling substances that could induce luminescence in the V. harveyi reporter strain BB170 or BB886. In the assays, 10 μl of cell-free culture fluids from E. coli ABI157, E. coli DH5, and S. typhimurium LT2 strains grown and harvested as described above were added to 96-well microtiter dishes. The V. harveyi reporter strain BB170 or BB886 was grown for 16 h at 30° C. with aeration in AB medium, diluted 1:5000 into fresh AB medium, and 90 µl of the diluted cells were added to the wells containing the E. coli and S. typhimurium cell-free culture fluids. Positive control wells contained 10 μl of cell-free culture fluid from strain V. harveyi BB152 (Autoinducer-1^−, Autoinducer-2^+) or V. harveyi BB120 (Autoinducer-1^+, Autoinducer-2^+). Negative control wells contained 10 μl of sterile growth medium. […] Every hour, light production was measured using a Wallac Model 1450 Microbeta Plus liquid scintillation counter in the chemiluminescence mode. The V. harveyi cell density was measured by diluting the same aliquots of cells used for measuring luminescence, spreading the dilutions onto solid LM medium (Bassler et al., 1993, supra), incubating the plates overnight at 30° C., and counting the resulting colonies the following day. […]

Row | SMILES | activity (induction of luminescence expression in V. harveyi) [1] | lowest concentration to which the assay was sensitive [2] [nM]
1 | O=C(O)CCC(=O)C(=O)O [-ketoglutarate, reference compound] | None of these compounds has activity | –
2 | C[C@@H](O)CC(=O)N[C@H]1CCOC1=O [AI-1, N-(3-hydroxybutanoyl)-L-homoserine lactone, reference compound] | – | 100
3 | CC(=O)O [acetate, reference compound] | None of these compounds has activity | –
4 | N[C@H]1CCOC1=O [homoserine lactone, reference compound] | None of these compounds has activity | –
